This assay concerns the target T1, PI3KC2α (Homo sapiens, UniProt O00443).
T1 construct: gene PIK3C2A; human PI3KC2α^ΔN (amino acids 376–1686)
Description: ADP-Glo lipid kinase assay with PI as substrate. In kind it is biochemical. (In general: ADP-Glo turns the ADP formed in a reaction into a luminescent signal.)

A word on the IC50: it is the midpoint of a concentration-inhibition curve. Low readings indicate inhibition by little substance, high ones a need for much substance.

Molecules are shown by their SMILES.

T1 sequence (O00443 376-1686): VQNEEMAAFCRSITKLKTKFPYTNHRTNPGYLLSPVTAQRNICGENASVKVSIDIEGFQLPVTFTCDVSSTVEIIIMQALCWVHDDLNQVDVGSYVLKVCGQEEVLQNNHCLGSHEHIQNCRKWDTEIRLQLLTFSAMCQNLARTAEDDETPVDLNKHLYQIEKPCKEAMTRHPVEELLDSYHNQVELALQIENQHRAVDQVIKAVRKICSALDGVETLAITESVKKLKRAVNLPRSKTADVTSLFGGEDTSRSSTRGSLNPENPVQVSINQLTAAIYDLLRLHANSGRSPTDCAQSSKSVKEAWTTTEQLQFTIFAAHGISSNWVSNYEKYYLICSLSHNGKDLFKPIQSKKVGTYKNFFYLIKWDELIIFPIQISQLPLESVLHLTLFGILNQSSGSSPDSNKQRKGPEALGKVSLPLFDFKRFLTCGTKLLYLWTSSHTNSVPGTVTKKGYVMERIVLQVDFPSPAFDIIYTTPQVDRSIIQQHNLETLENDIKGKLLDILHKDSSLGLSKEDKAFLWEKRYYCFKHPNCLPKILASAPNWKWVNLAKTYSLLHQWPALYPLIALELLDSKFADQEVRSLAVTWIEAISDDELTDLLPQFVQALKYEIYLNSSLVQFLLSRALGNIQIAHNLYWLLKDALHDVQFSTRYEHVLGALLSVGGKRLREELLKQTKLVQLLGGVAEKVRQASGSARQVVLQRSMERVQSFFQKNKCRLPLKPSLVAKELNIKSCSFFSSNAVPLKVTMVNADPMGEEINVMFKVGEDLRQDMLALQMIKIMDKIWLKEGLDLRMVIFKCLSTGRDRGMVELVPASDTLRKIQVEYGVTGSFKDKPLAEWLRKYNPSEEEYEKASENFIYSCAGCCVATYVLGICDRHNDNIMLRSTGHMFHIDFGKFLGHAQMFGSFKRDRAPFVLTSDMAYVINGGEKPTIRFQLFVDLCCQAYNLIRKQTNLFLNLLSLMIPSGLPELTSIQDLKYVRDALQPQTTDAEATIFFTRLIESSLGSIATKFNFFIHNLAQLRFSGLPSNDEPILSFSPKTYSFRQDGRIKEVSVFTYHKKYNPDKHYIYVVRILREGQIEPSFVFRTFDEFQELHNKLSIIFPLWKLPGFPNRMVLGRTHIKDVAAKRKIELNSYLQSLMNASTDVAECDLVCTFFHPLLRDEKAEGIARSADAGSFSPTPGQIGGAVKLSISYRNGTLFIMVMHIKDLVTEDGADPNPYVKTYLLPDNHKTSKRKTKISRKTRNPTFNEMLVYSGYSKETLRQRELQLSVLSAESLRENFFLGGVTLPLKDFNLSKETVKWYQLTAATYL

`CC(C)CCn1c(SCC(=O)Nc2ccccc2C(F)(F)F)nc2nccnc2c1=O` [compound 4]: inhibition was half-maximal at 2600 nM (IC50). In other words, the single-digit micromolar range.

The values above are taken from PMC7613998, “Development of selective inhibitors of phosphatidylinositol 3-kinase C2α” (Nature Chemical Biology, 2022).
